Source: US20230399312A1, “SUBSTITUTED PYRIMIDINES AND METHODS OF USE” (THERAVANCE BIOPHARMA R&D IP, LLC, priority 2020, published 2023)
pKi: −log10 of the molar value.

Legend:
[1] = system: TGF-β-stimulated SMAD3 phosphorylation in BEAS-2B cells; assay: Cellular ALK5 potency assay, inhibition of TGF-β stimulated pSMAD3 formation in BEAS-2B cells; assay type: cell-based; settings: Homo sapiens, pSMAD3, TGF-β 10 ng/mL, read-out: BEAS2B pIC50 (converted)
Outline: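 Potency is expressed as pIC50, based on dose-dependent reduction of TGF-β-induced pSMAD3 AlphaLISA signal relative to stimulated cells without compound. BEAS-2B cells received compound 1 h before a 30 min, 10 ng/mL TGF-β challenge.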

[2] = target: T1, recombinant human ALK5 (TGF-βR1) protein (Homo sapiens, UniProt P36897); assay: Biochemical ALK5 (TGF-βR1) assay to measure pKi (LANCE Ultra ULight kinase assay); settings: apparent pKi, converted from pIC50 by Cheng-Prusoff
T1 construct: purchased Life Technologies PR9075A
T1 sequence (P36897 34-503): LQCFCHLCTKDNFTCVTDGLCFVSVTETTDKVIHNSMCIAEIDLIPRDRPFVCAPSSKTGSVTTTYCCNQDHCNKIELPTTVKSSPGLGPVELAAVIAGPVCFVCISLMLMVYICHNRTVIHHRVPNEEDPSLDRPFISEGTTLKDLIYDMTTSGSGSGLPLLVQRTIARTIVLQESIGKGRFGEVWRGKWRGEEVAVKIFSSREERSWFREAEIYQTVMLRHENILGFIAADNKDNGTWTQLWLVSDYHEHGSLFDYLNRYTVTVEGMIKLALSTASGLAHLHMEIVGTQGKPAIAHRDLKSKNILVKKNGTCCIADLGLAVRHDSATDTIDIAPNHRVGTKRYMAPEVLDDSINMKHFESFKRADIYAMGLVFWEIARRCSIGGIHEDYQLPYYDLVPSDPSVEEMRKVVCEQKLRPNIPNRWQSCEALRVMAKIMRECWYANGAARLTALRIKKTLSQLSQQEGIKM
Outline: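 Read-out was LANCE Ultra TR-FRET with a europium anti-phospho-Topo IIα Thr1342 antibody after EDTA quench. Kinase reaction ran 60 min at 37 °C with ATP added from a 125 μM 5× stock, after 60 min compound–enzyme equilibration at room temperature. Values are pKi from Cheng-Prusoff conversion of fitted pIC50.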

SMILES	pKi [2]	IC50 [1] [nM]
Cc1cccc(-c2nccc(Nc3ccnc(Nc4ccc(NC(=O)C5CNC5)cc4)n3)n2)n1 [Compound 76, N-[4-[[4-[[2-(6-methyl-2-pyridyl)pyrimidin-4-yl]amino]pyrimidin-2-yl]amino]phenyl]azetidine-3-carboxamide]	9.50 to 10.40	≤ 20
CNC1CCN(c2ccc(Nc3nccc(Nc4ccnc(-c5cccc(C)n5)n4)n3)cc2)CC1 [Compound 251, N2-[4-[4-(methylamino)-1-piperidyl]phenyl]-N4-[2-(6-methyl-2-pyridyl)pyrimidin-4-yl]pyrimidine-2,4-diamine]	9.50 to 10.40	200 to 1260
Cc1cccc(-c2nccc(Nc3ccnc(Nc4ccc(NC(=O)N5CCN(C(C)C)CC5)cc4)n3)n2)n1 [Compound 110, 4-isopropyl-N-[4-[[4-[[2-(6-methyl-2-pyridyl)pyrimidin-4-yl]amino]pyrimidin-2-yl]amino]phenyl]piperazine-1-carboxamide]	9.50 to 10.40	25.1 to 158
Cc1cccc(-c2nccc(Nc3ccnc(Nc4csc(C(=O)O[C@H]5CCN(C)C5)c4)n3)n2)n1 [Compound 217, [(3S)-1-methylpyrrolidin-3-yl] 4-[[4-[[2-(6-methyl-2-pyridyl)pyrimidin-4-yl]amino]pyrimidin-2-yl]amino]thiophene-2-carboxylate]	9.50 to 10.40	25.1 to 158
Fc1cc(F)c(-c2nccc(Nc3ccnc(Nc4ccc(N5CCC(N6CCCC6)CC5)cc4)n3)n2)cc1Cl [Compound 314, N4-[2-(5-chloro-2,4-difluoro-phenyl)pyrimidin-4-yl]-N2-[4-(4-pyrrolidin-1-yl-1-piperidyl)phenyl]pyrimidine-2,4-diamine]	9.50 to 10.40	25.1 to 158
Cc1cccc(-c2nccc(Nc3ccnc(Nc4ccc(CN5CC(C(=O)O[C@H]6CCN(C)C6)C5)cc4)n3)n2)n1 [Compound 97, [(3S)-1-methylpyrrolidin-3-yl] 1-[[4-[[4-[[2-(6-methyl-2-pyridyl)pyrimidin-4-yl]amino]pyrimidin-2-yl]amino]phenyl]methyl] azetidine-3-carboxylate]	9.50 to 10.40	25.1 to 158
Cc1cccc(-c2nccc(Nc3ccnc(Nc4ccc(NS(=O)(=O)c5ccc(C(N)=O)cc5)cc4)n3)n2)n1 [Compound 162, 4-[[4-[[4-[[2-(6-methyl-2-pyridyl)pyrimidin-4-yl]amino]pyrimidin-2-yl]amino]phenyl]sulfamoyl] benzamide]	8.50 to 9.40	200 to 1260
Cc1cccc(-c2nccc(Nc3ccnc(Nc4cccc(NC(=O)C5(O)CNC5)c4)n3)n2)n1 [Compound 299, 3-hydroxy-N-[3-[[4-[[2-(6-methyl-2-pyridyl)pyrimidin-4-yl]amino]pyrimidin-2-yl]amino]phenyl]azetidine-3-carboxamide]	9.50 to 10.40	25.1 to 158
Cc1cccc(-c2nccc(Nc3ccnc(Nc4ccc(N5CCNCC5CC(=O)O)cc4)n3)n2)n1 (stereo not shown) [Compound 31, 2-[1-[4-[[4-[[2-(6-methyl-2-pyridyl)pyrimidin-4-yl]amino]pyrimidin-2-yl]amino]phenyl]piperazin-2-yl]acetic acid]	9.50 to 10.40	200 to 1260
Cc1cccc(-c2nccc(Nc3ccnc(Nc4cccc(CO)c4)n3)n2)n1 [Compound 45, [3-[[4-[[2-(6-methyl-2-pyridyl)pyrimidin-4-yl]amino]pyrimidin-2-yl]amino]phenyl]methanol]	9.50 to 10.40	≤ 20
Cc1cccc(-c2nccc(Nc3ccnc(Nc4ccc(CC(=O)O)cc4)n3)n2)n1 [Compound 82, 2-[4-[[4-[[2-(6-methyl-2-pyridyl)pyrimidin-4-yl]amino]pyrimidin-2-yl]amino]phenyl]acetic acid]	8.50 to 9.40	1580 to 10000
Cc1cccc(-c2nccc(Nc3ccnc(Nc4ccc(C(=O)OCC5CNC5)cc4)n3)n2)n1 [Compound 33, azetidin-3-ylmethyl 4-((4-((2-(6-methylpyridin-2-yl)pyrimidin-4-yl)amino)pyrimidin-2-yl)amino)benzoate]	9.50 to 10.40	25.1 to 158
Cc1cccc(-c2nccc(Nc3ccnc(Nc4ccc(CN5CCNC(C)(C)C5)cc4)n3)n2)n1 [Compound 249, N2-[4-[(3,3-dimethylpiperazin-1-yl)methyl]phenyl]-N4-[2-(6-methyl-2-pyridyl)pyrimidin-4-yl]pyrimidine-2,4-diamine]	9.50 to 10.40	25.1 to 158
Cc1cccc(-c2nccc(Nc3ccnc(Nc4ccc(CN5CCC(C(=O)O[C@@H]6CCN(C)C6)C5)cc4)n3)n2)n1 (stereo partly drawn) [Compound 195, [(3R)-1-methylpyrrolidin-3-yl] 1-[[4-[[4-[[2-(6-methyl-2-pyridyl)pyrimidin-4-yl]amino]pyrimidin-2-yl]amino]phenyl]methyl] pyrrolidine-3-carboxylate]	9.50 to 10.40	25.1 to 158

Second part, led by results:

pKi [2]	SMILES	IC50 [1] [nM]
9.50 to 10.40	Fc1cc(F)c(-c2ncc(C3CC3)c(Nc3ccnc(Nc4ccc(N5CCNCC5)cc4)n3)n2)cc1Cl [Compound 540, N4-[2-(5-chloro-2,4-difluoro-phenyl)-5-cyclopropyl-pyrimidin-4-yl]-N2-(4-piperazin-1-ylphenyl)pyrimidine-2,4-diamine]	1580 to 10000
8.50 to 9.40	CCNC(=O)Cc1cc(Nc2ccnc(Nc3ccc(N4CCNCC4)cc3)n2)nc(-c2cccc(C)n2)n1 [Compound 1006, N-ethyl-2-[2-(6-methyl-2-pyridyl)-6-[[2-(4-piperazin-1-ylanilino)pyrimidin-4-yl]amino]pyrimidin-4-yl] acetamide]	200 to 1260
9.50 to 10.40	Cc1cccc(-c2nccc(Nc3ccnc(Nc4ccc(CN5C[C@@H]6C[C@H]5CN6)cc4)n3)n2)n1 [Compound 375, N2-[4-[[(1S,4S)-2,5-diazabicyclo[2.2.1]heptan-2-yl]methyl]phenyl]-N4-[2-(6-methyl-2-pyridyl)pyrimidin-4-yl]pyrimidine-2,4-diamine]	25.1 to 158
9.50 to 10.40	Cc1cccc(-c2nccc(Nc3ccnc(Nc4ccc(-c5cnn(CCN(C)C)c5)cc4)n3)n2)n1 [Compound 356, N2-[4-[1-[2-(dimethylamino)ethyl]pyrazol-4-yl]phenyl]-N4-[2-(6-methyl-2-pyridyl)pyrimidin-4-yl]pyrimidine-2,4-diamine]	25.1 to 158
8.50 to 9.40	Cc1cccc(-c2nc(Nc3ccnc(Nc4cccc(C(=O)O)c4)n3)c3cccn3n2)n1 [Compound 1017, 3-[[4-[[2-(6-methyl-2-pyridyl)pyrrolo[2,1-f][1,2,4]triazin-4-yl]amino]pyrimidin-2-yl]amino]benzoic acid]	200 to 1260
7.50 to 8.40	Cc1cccc(-c2nccc(Nc3ccnc(Nc4ccc(C(=O)O[C@H]5CCNC5)cn4)n3)n2)n1 [Compound 575, [(3S)-pyrrolidin-3-yl] 6-[[4-[[2-(6-methyl-2-pyridyl)pyrimidin-4-yl]amino]pyrimidin-2-yl]amino]pyridine-3-carboxylate]	200 to 1260
9.50 to 10.40	Cc1cccc(-c2nccc(Nc3ccnc(Nc4csc(C(=O)OC[C@H]5CCCNC5)c4)n3)n2)n1 [Compound 600, [(3S)-3-piperidyl]methyl 4-[[4-[[2-(6-methyl-2-pyridyl)pyrimidin-4-yl]amino]pyrimidin-2-yl]amino]thiophene-2-carboxylate]	25.1 to 158
8.50 to 9.40	Cc1cccc(-c2cc(Nc3ccnc(Nc4ccc(N5CCOCC5)cc4)n3)c3cc[nH]c3n2)n1 [Compound 1001, N4-[6-(6-methyl-2-pyridyl)-1H-pyrrolo[2,3-b]pyridin-4-yl]-N2-(4-morpholinophenyl)pyrimidine-2,4-diamine]	200 to 1260
9.50 to 10.40	Cc1cccc(-c2nccc(Nc3ccnc(Nc4ccc(C(=O)O[C@H]5CCCNC5)nc4)n3)n2)n1 [Compound 617, [(3S)-3-piperidyl] 5-[[4-[[2-(6-methyl-2-pyridyl)pyrimidin-4-yl]amino]pyrimidin-2-yl]amino]pyridine-2-carboxylate]	25.1 to 158
7.50 to 8.40	Cc1cccc(-c2nccc(Nc3ccnc(Nc4ccc(C(=O)OC5CCNCC5)cn4)n3)n2)n1 [Compound 634, 4-piperidyl 6-[[4-[[2-(6-methyl-2-pyridyl)pyrimidin-4-yl]amino]pyrimidin-2-yl]amino]pyridine-3-carboxylate]	25.1 to 158
8.50 to 9.40	Cc1cccc(-c2nccc(Nc3ccnc(Nc4cccc(C(=O)N5CCN(C)CC5)c4)n3)n2)n1 [Compound 396, (4-methylpiperazin-1-yl)-[3-[[4-[[2-(6-methyl-2-pyridyl)pyrimidin-4-yl]amino]pyrimidin-2-yl]amino]phenyl]methanone]	25.1 to 158
9.50 to 10.40	Cc1cccc(-c2nccc(Nc3ccnc(Nc4cc(NC(=O)C5CCNCC5)c5c(c4)OCCO5)n3)n2)n1 [Compound 419, N-[7-[[4-[[2-(6-methyl-2-pyridyl)pyrimidin-4-yl]amino]pyrimidin-2-yl]amino]-2,3-dihydro-1,4-benzodioxin-5-yl]piperidine-4-carboxamide]	25.1 to 158
